The test system of series [1] is mice fed with normal feed (serum cholesterol). In words: Blood cholesterol lowering activity in mice fed with normal feed (Experiment 2). Format: in vivo, ddY male mice. As to conditions: 7 days; for Serum cholesterol level, mean ± S.E.: *** p < 0.001; for Percentage change of serum cholesterol: vs untreated group. The text has this: (2) Test method: It was done by a method similar to that of H. B. Right et al. (cf. H. B. Right et al., J. Med. Chem., Vol. 7, 113-115, 1964). ddY male mice (weighing 21-23 g, one group: 10 mice) were fed with a mixture of the test compound with powdery feed CE-2 (manufactured by CLEA JAPAN INC.) for 7 days. When the mice fed with the feed mixed with the test compound (test compound-administering group) and the mice fed with the feed mixed with no test compound (no test compound-administering group) were compared as to the feed uptake amount and body weight, there was observed no difference between two groups. After feeding for 7 days, under light anesthesia with ether, the femoral artery and vein were cut and blood was collected therefrom. The blood was centrifuged at 3,000 r.p.m. for 10 minutes to collect serum. The serum cholesterol was measured in the same manner as described in Experiment 1. From the data thus obtained, a mean value (X) of the serum cholesterol level in the no test compound-administering group and a mean value (Y) of the serum cholesterol level in the test compound-administering group were calculated, and the significant difference between them was tested (t-test). From the resulting data, the percentage change of serum cholesterol in the test compound-administering group was calculated by the following equation. [formula]

In series [2] the test system is hypercholesterolemic mice (plasma cholesterol). In words: Blood cholesterol lowering activity in hypercholesterolemic mice (Experiment 3). Format: in vivo, ddY male mice. As to conditions: dose per once 100 mg/kg, orally, three times. An excerpt:
(2) Test method: It was done by a method similar to that described in H. Ozawa, Screening of Pharmaceutical Activities for Development of New Drugs - Recent Movement and Practice, Vol. 1, 84-86, 1984 issued by […] Shoin (Tokyo). ddY male mice (weighing 10 - 12 g, one group: 10 mice) were fed with hypercholesterol feed [prepared by mixing CE-2 Feed (manufactured by CLEA JAPAN INC.) with cholesterol 1 w/w %, cholic acid 0.5 w/w % and sucrose 10 w/w %]. After 7 days from the starting of feeding with the hypercholesterol feed, and thereafter 6 hours and further 24 hours (totally three times), a suspension of the test compound in 3 w/v % aqueous gum arabic solution was orally administered. 3 hours after the final administration of the test compound, blood was collected from orbital vessel with hematocrit capillary (manufactured by TERUMO Corporation, treated with heparin). The blood was centrifuged at 10,000 r.p.m. for 2 minutes to collect blood plasma. The plasma cholesterol was measured in the same manner as described in Experiment 1. From the data thus obtained, a mean value (X) of the plasma cholesterol level in the no test compound-administering group and a mean value (Y) of the plasma cholesterol level in the test compound-administering group were calculated, and the significant difference between them was tested (t-test). From the resulting data, the percentage change of plasma cholesterol in the test compound-administering group was calculated by the following equation. [formula]

Series [3] concerns rats fed with normal feed (serum cholesterol). Put plainly: Blood cholesterol lowering activity in rats fed with normal feed (Experiment 1). Type of series: in vivo, Wistar male rats. As to conditions: dose per once 100 mg/kg, once a day for 7 days. How it is done:
It was done by a method similar to that of A. V. Ginocchio et al. (cf. A. V. Ginocchio et al., Arzneim.Forsch./Drug Res., Vol. 30, 2032-2034, 1980).
Wistar male rats (weighing 100-130 g, one group: 6 rats) were administered with a suspension of the test compound in 3 w/v % aqueous gum arabic solution once a day for 7 days. 24 hours after the final administration of the test compound, under light anesthesia with ether, the femoral artery and vein were cut and blood was collected therefrom. The blood was centrifuged at 3,000 r.p.m. for 10 minutes to collect serum. The serum cholesterol was measured by an enzymatic method using an agent for measuring total cholesterol (Determiner® TC "5", manufactured by Kyowa Medex Co., Ltd.) (cf. Charles C. Allain et al., Clin. Chem., Vol. 20, 470-475, 1974).
From the data thus obtained, a mean value (X) of the serum cholesterol level in the group to which no test compound was administered and a mean value (Y) of the serum cholesterol level in the group to which the test compound was administered were calculated, and the significant difference between them was tested (t-test). From the resulting data, the percentage change of serum cholesterol in the test compound-administering group was calculated by the following equation. [formula]

In series [4] the test system is mice (liver). Put plainly: Test of hepatic toxicity in mice, weight of liver (Experiment 5). Format: in vivo, ddY male mice. As to conditions: 7 days; for Percentage change of weight of liver: vs untreated group. An excerpt: ddY male mice (weighing 21-23 g, one group: 10 mice) were fed with a mixture of the test compound with powdery feed CE-2 (manufactured by CLEA JAPAN INC.) for 7 days. When the mice fed with the feed mixed with the test compound (test compound-administering group) and the mice fed with the feed mixed with no test compound (no test compound-administering group) were compared as to the feed uptake amount and body weight, there was observed no difference between two groups. After feeding for 7 days, under light anesthesia with ether, the liver was taken out, and the weight thereof was measured.
(§1) From the data thus obtained, a mean value (X) of the weight of liver in the no test compound-administering group and a mean value (Y) of the weight of liver in the test compound-administering group were calculated, and the significant difference between them was tested (t-test). From the resulting data, the percentage change of weight of liver in the test compound-administering group was calculated by the following equation. [formula]

Series [5] can be described thus: Test of acute toxicity (LD50) in mice (Experiment 6). As to conditions: mouse, in vivo, po, orally, 7 days observation, Weil method. Type of series: in vivo. The text has this:
ddY male mice (weighing 20-25 g, one group: 5 mice) were orally administered with a suspension of the test compound in 3 w/v % aqueous gum arabic solution.

Series [6] relates to rats (liver). In words: Test of hepatic toxicity in rats, weight of liver (Experiment 4). Type of series: in vivo, Wistar male rats. As to conditions: dose per once 100 mg/kg, orally, once a day for 7 days. How it is done:
Wistar male rats (weighing 100-130 g, one group: […]) were orally administered with a suspension of the test compound in 3 w/v % aqueous gum arabic solution once a day for 7 days. 24 hours after the final administration of the test compound, under light anesthesia with ether, the liver was taken out and the weight thereof was measured.
as §1

For series [7], the system named is cholesterol. As to conditions: clinical use; J. K. Reddy et al., Nature, Vol. 283, 397-398, 1980; cited from earlier work.
Setting [8] is: conc. of test compd. in feeds 0.025%.
Setting [9] is: conc. of test compd. in feeds 0.05%.
Setting [10] is: conc. of test compd. in feeds 0.1%.
Where [11] appears, read: *** p < 0.001 (compound of this invention).

Consider two compounds from patent US4742062A, “Benzylpiperazine compound and pharmaceutical composition as hypolipidemic agent” (Kanebo, Ltd., priority 1985, dated 1988).

Some results are limits rather than exact numbers.

For the compound `CC(C)(Sc1cc(C(C)(C)C)c(O)c(C(C)(C)C)c1)Sc1cc(C(C)(C)C)c(O)c(C(C)(C)C)c1` [Reference compound, reference compound], the “Serum cholesterol level, mean ± S.E.” value stood at 121.7 ± 3.1 mg/dL in series [1] (setting [8]), 104.8 ± 4.4 mg/dL in series [1] (setting [9]), 84.4 ± 5.4 mg/dL in series [1] (setting [10]) and 70.8 ± 2.0 mg/dL in series [3] (setting [11]). In addition, the “Percentage change of serum cholesterol” value in series [1] (setting [8]) is recorded as -19.0%; in series [1] (setting [9]), -30.2%; in series [1] (setting [10]), -43.8%; in series [3] (vs untreated group), -0.1%. The “Plasma cholesterol level, mean ± S.E.” value in series [2] (setting [11]) was 386.2 ± 10.5 mg/dL. The “Percentage change of plasma cholesterol” value in series [2] (vs untreated group) is on record as -13.4%. Further, the “Weight of liver, mean ± S.E.” value in series [4] (setting [8]) is listed as 6.66 ± 0.22 g/100 g of body weight; in series [4] (conc. of test compd. in feeds 0.05%, ** p < 0.01 (reference compound)), 7.11 ± 0.13 g/100 g of body weight; in series [4] (conc. of test compd. in feeds 0.1%, * p < 0.05 (reference compound)) it was 7.03 ± 0.09 g/100 g of body weight; in series [6], 4.68 ± 0.09 g/100 g of body weight. Also, the “Percentage change of weight of liver” value in series [4] (setting [8]) is “+4.9%”; in series [4] (setting [9]), “+12.0%”; in series [4] (setting [10]), “+10.7%”; in series [6] (vs untreated group) it was -4.7%. For the same compound, the LD50 – broadly, the dose at which mortality reaches 50% – at 168 h in series [5] is above 5000 mg/kg.
Regarding `CCOC(=O)C(C)(C)Oc1ccc(Cl)cc1` [clofibrate, ethyl p-chlorophenoxyisobutyrate], in series [7], the side effect result is listed as “hepatic toxicity”.
